ChEMBL document CHEMBL1151944, “Activation of peroxisome proliferator-activated receptor gamma (PPARgamma) by nitroalkene fatty acids: importance of nitration position and degree of unsaturation” (J Med Chem, 2009)
Active and inactive are the calls of the source. The calls are words filed in the database; no cut-off is given here.

Experiments:
[1] = target: T1, Peroxisome proliferator-activated receptor gamma (Homo sapiens, UniProt P37231); assay: Displacement of [3H2]nTZD3 from GST-tagged human recombinant PPARgamma by scintillation proximity assay
T1 sequence (P37231 whole entry): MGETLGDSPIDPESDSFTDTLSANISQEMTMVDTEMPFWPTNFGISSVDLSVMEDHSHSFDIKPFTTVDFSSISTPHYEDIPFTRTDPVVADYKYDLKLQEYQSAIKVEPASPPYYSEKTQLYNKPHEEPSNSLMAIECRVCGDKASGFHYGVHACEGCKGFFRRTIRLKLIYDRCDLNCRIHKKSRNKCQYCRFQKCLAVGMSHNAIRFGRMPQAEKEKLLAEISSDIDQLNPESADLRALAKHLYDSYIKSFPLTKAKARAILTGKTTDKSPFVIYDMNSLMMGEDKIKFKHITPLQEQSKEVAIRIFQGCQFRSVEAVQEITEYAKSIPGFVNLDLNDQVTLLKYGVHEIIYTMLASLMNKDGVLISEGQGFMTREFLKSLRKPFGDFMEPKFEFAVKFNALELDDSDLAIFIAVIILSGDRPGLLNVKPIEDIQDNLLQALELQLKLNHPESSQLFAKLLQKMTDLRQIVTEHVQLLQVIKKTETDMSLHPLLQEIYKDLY

[2] = target: T2, Peroxisome proliferator-activated receptor alpha (Homo sapiens, UniProt Q07869)
T2 sequence (Q07869 whole entry): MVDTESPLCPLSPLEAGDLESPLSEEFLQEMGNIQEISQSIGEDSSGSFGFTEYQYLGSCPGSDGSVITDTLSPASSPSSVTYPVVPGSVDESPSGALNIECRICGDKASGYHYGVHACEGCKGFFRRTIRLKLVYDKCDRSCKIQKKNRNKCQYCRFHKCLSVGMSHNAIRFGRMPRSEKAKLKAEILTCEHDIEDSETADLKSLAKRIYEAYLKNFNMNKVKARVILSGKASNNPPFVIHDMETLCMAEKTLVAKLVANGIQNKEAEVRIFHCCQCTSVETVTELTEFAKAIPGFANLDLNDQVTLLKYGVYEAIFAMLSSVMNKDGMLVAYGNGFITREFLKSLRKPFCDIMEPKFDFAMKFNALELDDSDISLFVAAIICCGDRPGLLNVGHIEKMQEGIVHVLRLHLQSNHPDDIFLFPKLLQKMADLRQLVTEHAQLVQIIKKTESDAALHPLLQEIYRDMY
Description: (§1) Displacement of [3H2]nTZD3 from GST-tagged human recombinant PPARalpha by scintillation proximity assay

[3] = Cytotoxicity against human MCF7 cells expressing human PPARgamma assessed as cell survival at 5 uM after 7 days by sulforhodamine B assay
[4] = target: T3, Peroxisome proliferator-activated receptor gamma (Homo sapiens) (UniProt P37231); assay: Activation of human PPAR-gamma-dependent transcription expressed in human MCF7 cells assessed as induction of PPRE-reporter gene expression at 1 uM after 24 hrs by dual luciferase reporter gene assay; format: cell-based
T3 sequence (whole entry): T1 sequence (P37231 whole entry)

[5] = target: T2, Peroxisome proliferator-activated receptor alpha; remark: listed apart in the source
Description: as §1

Row | IC50 [1] [nM] | IC50 [2] [µM] | Activity [4] | IC50 [5] [µM] | Compound | viability at 168 h, 5 µM [3] [%]
1 | 1610 | > 15 |  |  | CCCCCCCC/C(=C\CCCCCCCC(=O)O)[N+](=O)[O-] [CXA-10] | 
2 | 190 | 1.1 |  |  | CCCCC/C(=C\CCCCCCCCCCC(=O)O)[N+](=O)[O-] | 
3 | 39 | 1.6 |  |  | CCCCC/C=C(\CCCCCCCCCCC(=O)O)[N+](=O)[O-] | 
4 | 980 | > 15 |  |  | CCCCCCCC/C=C(\CCCCCCCC(=O)O)[N+](=O)[O-] [NITROLEIC ACID] | < 5
5 |  |  | Active | 9.6 | CCCCC/C=C(\C/C=C\CCCCCCCC(=O)O)[N+](=O)[O-] | 
6 | 830 | > 15 |  |  | CCCCCC/C=C(\CCCCCCCC(=O)O)[N+](=O)[O-] | 
7 | 1680 | > 15 |  |  | CCCCCCCCCCCC/C=C(\CCCC(=O)O)[N+](=O)[O-] | 
8 | 1720 | > 15 |  |  | CCCCCCCCCCCC/C(=C\CCCC(=O)O)[N+](=O)[O-] | 
9 | 630 | > 15 |  |  | CCCCCC/C(=C\CCCCCCCC(=O)O)[N+](=O)[O-] | 
